The subject of data set [1] is humans. The note with it: treatment of cholesterol gallstones; cited from earlier work.
Data set [2] concerns humans. The note with it: cited from earlier work.
The subject of another data set is BAT of C57BL/6J mice. Nature of the data set: BAT gene expression by microarray and Q-RT-PCR. It counts as in vivo, mouse. The note with it: high fat diet mixed with CA or CDCA for 9 days.
The test system of data set [3] is mouse primary hepatocytes. Nature of the data set: Endogenous SREBP-1c and target gene expression in mouse primary hepatocytes. It counts as cell-based. The method, then: Hepatocytes were isolated from wild-type male mice 8-10 weeks old. Animals were anesthetized with CO2 and livers were perfused with 40 ml Liver Perfusion Medium (Invitrogen) followed by 30 ml Liver Digestion Medium (Invitrogen), both at a flow rate of 5 ml/min. Isolated hepatocytes were resuspended in DMEM supplemented with 20% (v/v) FCS, 100 units/ml penicillin, and 100 units/ml streptomycin, and placed in plates coated with collagen IV at a density of 1×10^5 cells/cm^2. After a 4-hour incubation at 37° C. in an atmosphere of 5% CO2, the medium was changed to DMEM supplemented with 10% (v/v) FCS, 100 units/ml penicillin, 100 units/ml streptomycin, 0.5 μM dexamethasone (Sigma-Aldrich), and 0.4 μM insulin (Sigma-Aldrich). After 16 hours, the medium was changed into medium supplemented with CDCA and ligands for LXR and RXR. After an additional 18-hour incubation, cells were harvested for RNA isolation.
Total RNA was extracted from frozen tissue samples or cells using the RNeasy kit (QIAGEN, Courtaboeuf, France). cDNA was synthesized from total RNA with the SuperScript First-Strand Synthesis System (Invitrogen) and random hexamer primers. The real-time PCR measurement of individual cDNAs was performed using SYBR green dye to measure duplex DNA formation with the LightCycler System (Roche Diagnostics, Meylan, France). The sequences of the primer sets used are available online at http://www-igbmc.ustrasbg.fr/Departments/Dep_V/Dep_VA/Publi/Paper.html.

The test system of data set [4] is HSMM. Nature of the data set: cAMP levels in human skeletal muscle myoblasts. It counts as cell-based. To be noted: 1 mM IBMX, 30 minutes. In general terms: Changes in cAMP serve as a functional read-out for many G protein-coupled receptors.
Protocol: HSMM were obtained from Cambrex (Walkersville, Md.) and were cultured according to the suppliers instructions. […] For the cAMP measurements, cells were preincubated 12 h in Opti-MEM (Life Technologies, Cergy Pontoise, France), supplemented with 1 mM IBMX. Then medium was changed and cells were incubated for another 1 h in Opti-MEM with 1 mM IBMX, after which the medium was replaced for Opti-MEM with 1 mM IBMX and the indicated compounds. After 30 minutes the cells were lysed for cAMP analysis.
For a further data set, the system named is mouse SREBP-1c promoter. Nature of the data set: SREBP-1c promoter luciferase reporter assay in McA-RH7777 cells. It counts as cell-based. To be noted: McA-RH7777 rat hepatoma cells, LXRα transfection and/or LXR and RXR agonists. On the technique in general: In a reporter assay the amount or activity of a reporter protein is the signal.
In data set [5] the test system is HSMM. Description: Oxygen consumption and extracellular acidification rate in HSMM. The note with it: for cellular oxygen consumption: 48 or 72 hours; for extracellular acidification rate: after 72 hours of treatment.
Another data set deals with C57BL/6J mice. Nature of the data set: LXR agonist-induced lipogenesis in C57BL/6J mice with or without CA. To be noted: C57BL/6J mice, chow diet, gavage 30 mg/kg. It counts as in vivo, mouse. The method, then: Male C57BL/6J, KK-Ay, and ob/ob (C57BL/6J background) mice, 6-10 weeks of age, were obtained from Elevage Janvier (Le Genest St. Isle, France), CLEA Japan Inc. (Tokyo, Japan), and The Jackson Laboratory (Bar Harbor, Me., USA), respectively. All mice were maintained in a temperature-controlled (23° C.) facility with a 12-hour light/dark cycle and were given free access to food and water. The study protocols were approved by the institutional review boards. The body weight and food intake were measured every second day. The control and high-fat diet was obtained from UAR (Villemoisson sur Orge, France). […] The mice were fasted 4 hours before harvesting blood for subsequent lipid measurements, and tissues for RNA isolation, lipid measurements, and histology.
Mice were gavaged with the LXR agonist T0901317 or vehicle, and the different diets were continued for one more day, after which the mice were sacrificed.

In data set [6] the target is T1, TGR5 (Homo sapiens, UniProt Q8TDU6).
T1 construct: expressed in transfected cells
T1 sequence (Q8TDU6 1-330): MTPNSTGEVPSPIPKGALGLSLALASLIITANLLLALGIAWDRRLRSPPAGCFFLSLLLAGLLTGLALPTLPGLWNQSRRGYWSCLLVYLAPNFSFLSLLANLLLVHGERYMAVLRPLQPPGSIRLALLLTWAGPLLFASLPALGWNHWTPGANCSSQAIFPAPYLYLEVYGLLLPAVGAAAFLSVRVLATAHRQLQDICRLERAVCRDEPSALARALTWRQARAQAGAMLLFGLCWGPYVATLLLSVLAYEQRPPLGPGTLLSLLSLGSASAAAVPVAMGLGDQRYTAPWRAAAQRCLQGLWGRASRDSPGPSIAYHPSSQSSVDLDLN
Nature of the data set: CHO cells transiently expressing TGR5 and pCRE-Luc. The note with it: different concentrations, almost as much cAMP accumulation as with 10 μM forskolin. It counts as cell-based. The source says: These two steroids constitute about 2 percent by weight of gum guggul.

For data set [7], the system named is HSMM. Description: D2 activity in human skeletal muscle myoblasts. It counts as cell-based. To be noted: 16 h incubation. As to the method:
HSMM were obtained from Cambrex (Walkersville, Md.) and were cultured according to the suppliers instructions. D2 activity measurements were performed after a 16 h incubation with the indicated compounds. For the cAMP measurements, cells were preincubated 12 h in Opti-MEM (Life Technologies, Cergy Pontoise, France), supplemented with 1 mM IBMX. Then medium was changed and cells were incubated for another 1 h in Opti-MEM with 1 mM IBMX, after which the medium was replaced for Opti-MEM with 1 mM IBMX and the indicated compounds. After 30 minutes the cells were lysed for cAMP analysis.

For the next data set, the system named is BAT cells. Description: Isolated mouse BAT cells, D2 mRNA, D2 activity and cAMP. It counts as cell-based. As to the method: An OGTT was performed in animals that were fasted overnight. Glucose was administered by gavage at a dose of 2 g/kg. An IPITT was done in 4 h fasted animals. Insulin was injected at a dose of 0.75 U/kg. Glucose quantification was done with the Maxi Kit Glucometer 4 (Bayer Diagnostic, Puteaux, France) or Glucose RTU (bioMérieux Inc., Marcy l'Etoile, France). Plasma insulin concentrations were measured using ELISA (Cristal Chem Inc., Downers Grove, Ill.). Nonesterified fatty acids, triglycerides, ketone bodies, BA and total cholesterol were determined by enzymatic assays (Roche, Mannheim, Germany). cAMP was measured using the cAMP-Screen system (Applied Biosystems, Bedford, Mass.).

For data set [8], the target named is T1, TGR5. Nature of the data set: cAMP response element (CRE)-luciferase reporter assay with TGR5. It counts as cell-based. To be noted: cells co-transfected with TGR5 expression plasmid and CRE-driven luciferase reporter. The source says: Since a synthetic FXRα agonist was unable to phenocopy the effects of BAs on energy expenditure, we focused our attention on FXRα-independent signaling events stimulated by BAs. […] We used a cAMP response element (CRE)-luciferase reporter assay to confirm that TGR5 is a BA receptor.
We used quantitative RT-PCR to measure the expression of D2 and TGR5 mRNAs in selected mouse tissues.

Protocol for BAT of C57BL/6J mice: For microarray analysis, RNA was isolated from BAT using the RNeasy mini kit (QIAGEN, Courtaboeuf, France). Equal amounts of RNA from mice in each group were pooled (n=3 or 4 mice) and used for cDNA synthesis. After second-strand cDNA synthesis (Life Technologies, Cergy Pontoise, France), in vitro transcription was performed with biotinylated UTP and CTP (Enzo Diagnostics, Farmingdale, N.Y.). Fragmented cRNA samples were hybridized to the Affymetrix MOE430A microarray. The raw data was analyzed using the Microarray Suite Software version 5.0 (MAS5.0, Affymetrix, Santa Clara, Calif.).
Protocol for mouse SREBP-1c promoter: The LXR response elements in pSREBP-1c324-Luc were mutated for promoter analysis using the Quick Change Site-Directed Mutagenesis Kit (Stratagene, La Jolla, Calif., USA).
The rat hepatoma cell line McA-RH7777 was obtained from ATCC (Manassas, Va., USA). […] Transfections were performed in 96-well plates using Lipofectamine 2000 (Invitrogen, Cergy Pontoise, France). Each well contained 64 ng luciferase reporter and 4 ng of β-galactosidase expression plasmid. We transfected 16 ng RXRα, 16 ng LXRα, 16 ng LRH-1, 32 ng SHP expression plasmids, or the corresponding empty expression vectors. After 6 hours of incubation with the DNA-lipofectamine complexes, the transfection medium was exchanged for medium with or without the indicated ligands. Ligands for LXR and RXR were dissolved in ethanol or DMSO and added to the cells in DMEM supplemented with 10% lipoprotein-deficient serum. To suppress SREBP-1c activation by processing, leading to feed-forward induction of SREBP-1c expression, the medium used for the SREBP-1c promoter study was also supplemented with 10 μg/ml cholesterol and 1 μg/ml 25-hydroxycholesterol. Luciferase measurements were normalized to β-galactosidase activity.

Turning to `C[C@H](CCC(=O)O)[C@H]1CC[C@H]2[C@@H]3[C@H](O)C[C@@H]4C[C@H](O)CC[C@]4(C)[C@H]3CC[C@]12C` [CDCA, chenodeoxycholic acid], in the data set with humans [1], the hypertriglyceridemia result was “reduce hypertriglyceridemia”. In addition, the hepatotoxicity result in the data set with humans [2] is recorded as “significant hepatotoxicity”. In addition, the LDL cholesterol result in the data set on humans [2] (decrease in LDL-R activity) is listed as “raise LDL cholesterol”. Besides, the “genes involved in control of energy expenditure incl. D2 in BAT (microarray)” value in the data set on BAT of C57BL/6J mice is “upregulated”. Besides, the “expression of lipogenic target genes of SREBP-1c (SCD-1, AceCS, ME)” value in [3] (RXR and LXR ligands plus CDCA) is listed as “decreased likewise”. Moreover, the SHP expression result in [3] (addition of CDCA) is reported as “increased”. Also, the “endogenous SREBP-1c expression” value in data set [3] (induced by RXR and LXR ligands, increasing amounts of CDCA, 18-hour incubation) is listed as “decreased dose-dependently”. Besides, the cAMP levels entry in the data set with HSMM [4] is on record as “increased cAMP levels in a dose-dependant fashion”. The “increase of SREBP-1c promoter activity” value with mouse SREBP-1c promoter is given as “attenuated”.

As to `N[C@@H](Cc1cc(I)c(Oc2ccc(O)c(I)c2)c(I)c1)C(=O)O` [T3, 3,5,3′-triiodothyronine], in the data set on HSMM [5], the cellular oxygen consumption result is “elevated” and the extracellular acidification rate entry was “increase”.

With `O=S(=O)(c1ccccc1)N(CC(F)(F)F)c1ccc(C(O)(C(F)(F)F)C(F)(F)F)cc1` [T0901317], the “liver weight and serum TGs” value in the data set on C57BL/6J mice is “induction”.

Take `C[C@H](CCC(=O)NCCS(=O)(=O)O)[C@H]1CC[C@H]2[C@@H]3[C@H](O)C[C@@H]4C[C@H](O)CC[C@]4(C)[C@H]3C[C@H](O)[C@]12C` [TCA, taurocholic acid]: in the data set with HSMM [5], the cellular oxygen consumption result is “elevated” and the extracellular acidification rate result was “increase”. For the same compound, the reporter activity result at TGR5 [6] was “dramatically increased”. In the data set on HSMM [4], the cAMP levels result is “increased cAMP levels in a dose-dependant fashion”. Moreover, the D2 activity entry in the data set with HSMM [7] was “significant and dose dependent induction”. The cAMP levels entry in the data set on BAT cells (BAT cells) was “most effective”. For the same compound, in the data set on BAT cells (BAT cells from mice fed control or high fat diet), the “D2 mRNA and activity” value is “dose dependently increased”. Moreover, the luciferase expression entry on TGR5 [8] was “increased luciferase expression in a dose-dependent manner”.

As to `C[C@H](CCC(=O)NCCS(=O)(=O)O)[C@H]1CC[C@H]2[C@@H]3[C@H](O)C[C@@H]4C[C@H](O)CC[C@]4(C)[C@H]3CC[C@]12C` [TCDCA, tauroCDCA], in the data set on HSMM [4], the cAMP levels entry is on record as “did not increase”.

The values are drawn from patent US20080031968A1, “Methods for increasing cellular energy expenditure” (priority 2005, published 2008).
